In the RepoRT retention time repository (doi:10.1021/acs.analchem.2c02893):

Test: RP, Thermo Scientific Acclaim RSLC 120 C18, 100 × 2.1 mm, 2.2 µm, 30 °C, 0.2 mL/min, estimated dead time 1.1 min; A: 90% water + 10% methanol + 0.01% formic acid + 5 mM ammonium formate, pH 3.61; B: methanol + 0.01% formic acid + 5 mM ammonium formate, pH 3.61; gradient (min/%B) 0/1 1/1 2/39 13/99.9 15/99.9 15.1/1 20.1/1
Settings: stereoisomer not certain

Row | SMILES | LC retention time [min]
1 | COC(=O)c1c(Cl)c(Cl)c(C(=O)OC)c(Cl)c1Cl [Chlorthal-dimethyl (DCPA. Dacthal) (NH4)] | 11.6
2 | CN(CCOc1ccc(CC2SC(=O)NC2=O)cc1)c1ccccn1 (stereo not drawn) [Rosiglitazone] | 6.98
3 | CCOP(=O)(OCC)OP(=O)(OCC)OCC [TEPP] | 6.49
4 | COc1ccc(CCN)cc1OC [DMPEA] | 3.53
5 | COCCOCCOC [Diglyme] | 3.9
6 | COc1ccc2[nH]cc(CCNC(C)=O)c2c1 [Melatonin] | 5.36
7 | CC(C)(Oc1ccc(CCNC(=O)c2ccc(Cl)cc2)cc1)C(=O)O [Bezafibrate] | 8.77
8 | O=C(NC(=O)c1c(F)cccc1F)Nc1cc(Cl)c(Oc2ncc(C(F)(F)F)cc2Cl)c(Cl)c1 [Chlorfluazuron] | 13.2
9 | COP(=S)(OC)Oc1ccc([N+](=O)[O-])cc1 [Parathion-methyl] | 9.24
10 | CCCSP(=O)(OCC)SCCC [Ethoprophos] | 10.2
11 | CCN(CC)CCN1C(=O)CN=C(c2ccccc2F)c2cc(Cl)ccc21 [Flurazepam] | 6.61
12 | CCC(C)n1c(=O)[nH]c(C)c(Br)c1=O (stereo not drawn) [Bromacil] | 7.07
13 | CC(N)Cc1cccc(F)c1 (stereo not drawn) [Amphetamine (3-F-)] | 4.39
14 | CCC(=O)OC1(C(=O)CCl)C(C)CC2C3CCC4=CC(=O)C=CC4(C)C3(F)C(O)CC21C (stereo not drawn) [Clobetasol propionate] | 10.6
15 | CC1C(=O)OC2CC[N+]3([O-])CC=C(COC(=O)C(C)(O)C1(C)O)C23 (stereo not drawn) [Monocrotaline-N-oxide] | 3.19
16 | CCN(CC)CCN1c2ccccc2Sc2ccccc21 [Diethazine] | 7.76
17 | Cc1noc(NS(=O)(=O)c2ccc(N)cc2)c1C [Sulfisoxazole] | 4.71
18 | O=C1Cc2cc(CCN3CCN(c4nsc5ccccc45)CC3)c(Cl)cc2N1 [Ziprasidone] | 8.03
19 | CN1CCC(=C2c3ccccc3CC(=O)c3sccc32)CC1 [Ketotifen] | 5.54
20 | CCn1cc(C(=O)O)c(=O)c2ccc(C)nc21 [Nalidixic acid] | 7.06
21 | Cc1oc(C)c(C(=O)Nc2ccccc2)c1C [Methfuroxam] | 8.79

Row | SMILES | LC retention time [min]
22 | NCCc1ccccc1 [Phenethylamine (2-)] | 3.57
23 | NC(=O)N=C1SCCN1Cc1ccc(Cl)nc1 [Thiacloprid-amide] | 4.83
24 | OC(Cc1ccccc1Cl)(Cn1[nH]cnc1=S)C1(Cl)CC1 (stereo not drawn) [Prothioconazole] | 11.2
25 | CC(COc1ccccc1)NC(C)C(O)c1ccc(O)cc1 (stereo not drawn) [Isoxsuprine] | 5.28
26 | CNC(C)Cc1ccccc1 (stereo not drawn) [Amphetamine-Methyl (methamphetamine)] | 4.21
27 | CC(CN(C)C)CN1c2ccccc2S(=O)(=O)c2ccccc21 (stereo not drawn) [Oxomemazine] | 5.34
28 | CCCCCCCn1cc(C(=O)c2cccc3ccccc23)c2ccccc21 [JWH-020] | 13.4
29 | CCCCCCCCCCCCN=C(N)N [Dodine (Ion1+)] | 11.2
30 | CC(C)OC(=O)Nc1cccc(Cl)c1 [Chlorpropham] | 9.78
31 | C=CCN1CCC23c4c5ccc(O)c4OC2C(=O)CCC3(O)C1C5 (stereo not drawn) [Naloxone] | 3.44
32 | CC(C)N(C(=O)C(=O)O)c1ccc(F)cc1 [Flufenacet-OXA] | 5.49
33 | CNC(C)Cc1ccc(O)cc1 (stereo not drawn) [Pholedrine (Amphetamine-P-Hydroxy-methyl)] | 2.91
34 | CN1CCC23c4c5ccc(O)c4OC2C(O)CCC3C1C5 (stereo not drawn) [Morphine-Dihydro] | 2.66
35 | O=C1CN=C(c2ccccc2F)c2cc(Cl)ccc2N1 [Flurazepam-Desalkyl] | 8.74
36 | COC(=O)c1ccccc1CS(=O)(=O)NC(=O)Nc1nc(OC)cc(OC)n1 [Bensulfuron-methyl] | 8.77
37 | CCOP(=S)(Oc1cnc(C(C)(C)C)nc1)OC(C)C (stereo not drawn) [Tebupirimphos] | 12.3
38 | COC(=O)COc1ccc(Cl)cc1C [MCPA-methylester] | 9.85
39 | CC(C)NCC(O)c1ccccc1Cl (stereo not drawn) [Clorprenaline] | 4.76
40 | CCNC1(c2cccc(OC)c2)CCCCC1=O (stereo not drawn) [Methoxetamine] | 4.93
41 | CCCCOc1ccc(C(=O)OCCN(CC)CC)cc1 [Butoxycaine] | 11.3
42 | CCCCCCCCCCCC(=O)NCCC[N+](C)(C)CC(=O)O [Lauramidopropylbetaine] | 13.1

The remaining lines, values ahead:

Row | LC retention time [min] | SMILES
43 | 4.11 | CC(=O)Nc1ccc(S(=O)(=O)Nc2ncccn2)cc1 [Sulfadiazine-N4-Acetyl]
44 | 6.24 | CCCOc1ccc(C(=O)CCN2CCCCC2)cc1 [Propipocaine]
45 | 11 | CCOC(=O)C(C)(C)Oc1ccc(Cl)cc1 [Clofibrate]
46 | 10.1 | CC(C)(C)C(=O)C(Oc1ccc(Cl)cc1)n1ccnc1 (stereo not drawn) [Climbazole]
47 | 11.1 | CC(C)c1nc(CN(C)C(=O)NC(C(=O)NC(Cc2ccccc2)CC(O)C(Cc2ccccc2)NC(=O)OCc2cncs2)C(C)C)cs1 (stereo not drawn) [Ritonavir]
48 | 3.43 | CNS(=O)(=O)Cc1ccc2[nH]cc(CCN(C)C)c2c1 [Sumatriptan]
49 | 3.14 | CNC(=C[N+](=O)[O-])NCCSCc1ccc(CN(C)C)o1 [Ranitidine]
50 | 5.96 | CC(CC(C#N)(c1ccccc1)C(C)C)N(C)C (stereo not drawn) [Isoaminile]
51 | 5.61 | NC(N)=NN=Cc1c(Cl)cccc1Cl [Guanabenz]
52 | 7.46 | COc1ccnc(CS(=O)c2nc3ccc(OC(F)F)cc3[nH]2)c1OC (stereo not drawn) [Pantoprazole]
53 | 10.2 | C#CC1(O)CCC2C3CCC4=CC(=O)CCC4C3CCC21CC (stereo not drawn) [Norgestrel]
54 | 3.56 | CC(=O)N(CC(O)CN(C(C)=O)c1c(I)c(C(=O)NCC(O)CO)c(I)c(C(=O)NCC(O)CO)c1I)c1c(I)c(C(=O)NCC(O)CO)c(I)c(C(=O)NCC(O)CO)c1I (stereo not drawn) [Iodixanol]
55 | 6.61 | O=C(O)c1cc(N=Nc2ccc(S(=O)(=O)Nc3ccccn3)cc2)ccc1O [Sulfasalazine]
56 | 10.2 | CCNc1nc(Cl)nc(N(CC)CC)n1 [Trietazine]
57 | 11.6 | COCc1c(C(C)C)nc(C(C)C)c(C=CC(O)CC(O)CC(=O)O)c1-c1ccc(F)cc1 (stereo not drawn) [Cerivastatin]
58 | 6.13 | CC=CC(=O)N(CC)C(CC)C(=O)N(C)C (stereo not drawn) [Crotethamide]
59 | 3.73 | CN1C2CCC1CC(OC(=O)C(O)c1ccccc1)C2 (stereo not drawn) [Homatropine]
60 | 7.97 | CN1C2CCC1CC(OC(c1ccccc1)c1ccccc1)C2 (stereo not drawn) [Benzatropine]
61 | 11.8 | CCC1CCCC(OC2CCC(N(C)C)C(C)O2)C(C)C(=O)C2=CC3C(C=C(C)C4CC(OC5OC(C)C(OC)C(OC)C5OC)CC43)C2CC(=O)O1 (stereo not drawn) [Spinosad D]
62 | 4.39 | CC(CCc1ccc(O)cc1)NCC(O)c1ccc(O)cc1 (stereo not drawn) [Ractopamine]
63 | 12.5 | COc1cccc(N(C)C(=S)Oc2cccc(C(C)(C)C)c2)n1 [Pyributicarb]
